What all share (assay type): functional
For assay [1], the system named is Pyricularia oryzae. The assay is described as follows: Antifungal activity against Magnaporthe oryzae infected on compound treated rice seedlings at 7.8 ppm incubated for 24 hr in moist chamber followed by incubation for 5 days in greenhouse conditions.
Assay [2] relates to Pyricularia oryzae. The experiment in a line: Antifungal activity against Magnaporthe oryzae infected on compound treated rice seedlings at 31.3 ppm incubated for 24 hr in moist chamber followed by incubation for 5 days in greenhouse conditions.
Assay [3] concerns Pyricularia oryzae. The assay is described as follows: Antifungal activity against Magnaporthe oryzae infected on compound treated rice seedlings at 125 ppm incubated for 24 hr in moist chamber followed by incubation for 5 days in greenhouse conditions.
Assay [4] has as its system Pyricularia oryzae. The assay is described as follows: Antifungal activity against Magnaporthe oryzae infected on compound treated rice seedlings at 500 ppm incubated for 24 hr in moist chamber followed by incubation for 5 days in greenhouse conditions.

`CCSC1=NS(=O)(=O)c2ccccc2N1C`: the Activity with Pyricularia oryzae [1] was 0%; in the assay with Pyricularia oryzae [2] it was 30%; in the assay on Pyricularia oryzae [3], 70%; with Pyricularia oryzae [4] it was 90%.

For the compound `Cc1ccc(S(=O)(=O)/N=C(/c2ccccc2)N(C)C)cc1`, the Activity in the assay on Pyricularia oryzae [4] is on record as 30%.

The compound `Cc1ccc(/C(=N/S(=O)(=O)c2ccc(C)cc2)N(C)C)cc1` came in with an Activity in the assay on Pyricularia oryzae [4] of 70%.

As for `COc1ccc(/C(=N/S(=O)(=O)c2ccc(C)cc2)N(C)C)cc1`, the Activity in the assay with Pyricularia oryzae [4] is given as 70%.

In the case of `Cc1ccc(S(=O)(=O)/N=C(/c2ccc(N(C)C)cc2)N(C)C)cc1`, the Activity with Pyricularia oryzae [4] is reported as 0%.

The compound `Cc1ccc(S(=O)(=O)/N=C(/c2ccc(Cl)cc2)N(C)C)cc1` gave an Activity with Pyricularia oryzae [4] of 0%.

As for `Cc1ccc(S(=O)(=O)/N=C(/c2ccc([N+](=O)[O-])cc2)N(C)C)cc1`, the Activity in the assay with Pyricularia oryzae [4] stood at 0%.

Regarding `Cc1ccc(S(=O)(=O)/N=C(/c2ccc(Cl)c(Cl)c2)N(C)C)cc1`, the Activity with Pyricularia oryzae [4] was found to be 50%.

In the assay on Pyricularia oryzae [4], `COC(=O)c1ccccc1/C(=C/S(=O)(=O)c1ccc(C)cc1)N(C)C` came in with an Activity of 0%.

In turn, `C/C(=N/S(=O)(=O)c1ccc(C)cc1)N(C)C` had an Activity with Pyricularia oryzae [4] of 70%.

In turn, `CCC/C(=N/S(=O)(=O)c1ccc(C)cc1)N(C)C` returned an Activity in the assay with Pyricularia oryzae [4] of 70%.

In the assay on Pyricularia oryzae [4], `C/C=C/C(=N/S(=O)(=O)c1ccc(C)cc1)N(C)C` showed an Activity of 30%.

Take `Cc1ccc(S(=O)(=O)/N=C(/CC(C)Br)N(C)C)cc1` (stereo not drawn): the Activity in the assay on Pyricularia oryzae [4] turned out to be 30%.

With `CCCCCC/C(=N/S(=O)(=O)c1ccc(C)cc1)N(C)C`, the Activity in the assay with Pyricularia oryzae [4] is recorded as 70%.

With `Cc1ccc(S(=O)(=O)/N=C(/C2CCCCC2)N(C)C)cc1`, the Activity in the assay with Pyricularia oryzae [4] amounted to 50%.

`CO/C(=N/S(=O)(=O)c1ccc(C)cc1)N(C)C` yielded an Activity with Pyricularia oryzae [4] of 0%.

The compound `CS/C(=N/S(=O)(=O)c1ccc(C)cc1)N(C)C` showed an Activity in the assay on Pyricularia oryzae [4] of 30%.

In the assay with Pyricularia oryzae [4], `Cc1ccc(S(=O)(=O)N=C(N(C)C)N(C)C)cc1` gave an Activity of 30%.

For the compound `CCOC(=O)/C(=N/S(=O)(=O)c1ccc(C)cc1)N(C)C`, the Activity in the assay with Pyricularia oryzae [4] amounted to 50%.

For the compound `CCN(CC)/C(=N\S(=O)(=O)c1ccc(C)cc1)C(C)C`, in the assay with Pyricularia oryzae [4], the Activity stood at 0%.

The compound `CCN(CC)/C(CC(C)C)=N\S(=O)(=O)c1ccc(C)cc1` came in with an Activity with Pyricularia oryzae [4] of 0%.

The compound `CCN(CC)/C(=N\S(=O)(=O)c1ccc(C)cc1)C(C)(C)C` displayed an Activity in the assay with Pyricularia oryzae [4] of 0%.

The compound `CCCC/C(=N/S(=O)(=O)c1ccc(C)cc1)N(CC)CC` yielded an Activity in the assay on Pyricularia oryzae [4] of 70%.

Take `CCCCC/C(=N/S(=O)(=O)c1ccc(C)cc1)N(CC)CC`: the Activity in the assay with Pyricularia oryzae [1] is reported as 30%; with Pyricularia oryzae [2], 70%; with Pyricularia oryzae [3] it was 90%; in the assay with Pyricularia oryzae [4], 90%.

In the case of `CCCCCC/C(=N/S(=O)(=O)c1ccc(C)cc1)N(CC)CC`, the Activity in the assay on Pyricularia oryzae [1] is recorded as 50%; in the assay on Pyricularia oryzae [2], 90%; in the assay with Pyricularia oryzae [3], 90%; in the assay with Pyricularia oryzae [4], 97%.

Regarding `CCN(CC)/C(=N\S(=O)(=O)c1ccc(C)cc1)C1CCCCC1`, in the assay on Pyricularia oryzae [4], the Activity came to 30%.

`CCCCCCC/C(=N/S(=O)(=O)c1ccc(C)cc1)N(CC)CC`: the Activity in the assay on Pyricularia oryzae [1] stood at 30%; with Pyricularia oryzae [2], 70%; in the assay on Pyricularia oryzae [3] it was 90%; in the assay on Pyricularia oryzae [4], 90%.

Take `CCCCCCCC/C(=N/S(=O)(=O)c1ccc(C)cc1)N(CC)CC`: the Activity in the assay on Pyricularia oryzae [4] is 70%.

Compound `CCCCCCCCC/C(=N/S(=O)(=O)c1ccc(C)cc1)N(CC)CC` gave an Activity with Pyricularia oryzae [4] of 50%.

In the assay with Pyricularia oryzae [4], `CCCCCCCCCC/C(=N/S(=O)(=O)c1ccc(C)cc1)N(CC)CC` returned an Activity of 50%.

As for `CCCCCCCCCCC/C(=N/S(=O)(=O)c1ccc(C)cc1)N(CC)CC`, the Activity in the assay with Pyricularia oryzae [4] was found to be 50%.

In the assay with Pyricularia oryzae [4], `CCCCCCCCCCCCC/C(=N/S(=O)(=O)c1ccc(C)cc1)N(CC)CC` displayed an Activity of 30%.

Regarding `CCCCCCCCCCCCCCC/C(=N/S(=O)(=O)c1ccc(C)cc1)N(CC)CC`, the Activity with Pyricularia oryzae [4] is 0%.

`CCCCCC/C(=N/S(=O)(=O)c1ccc(C)cc1)N(CCC)CCC` returned an Activity with Pyricularia oryzae [4] of 50%.

`CCCCCC/C(=N/S(=O)(=O)c1ccc(C)cc1)N(CCCC)CCCC` gave an Activity in the assay on Pyricularia oryzae [4] of 0%.

`CCCCCC/C(=N/S(=O)(=O)c1ccc(C)cc1)N1CCCCC1`: the Activity in the assay with Pyricularia oryzae [4] is on record as 50%.

Take `CCCCCC/C(=N/S(=O)(=O)c1ccc(C)cc1)N1CCCC1`: the Activity in the assay with Pyricularia oryzae [4] was determined as 30%.

As to `CCCCCC/C(=N/S(=O)(=O)c1ccc(C)cc1)N1CCN(C)CC1`, in the assay with Pyricularia oryzae [4], the Activity is recorded as 30%.

`CCCCCC/C(=N/S(=O)(=O)c1ccc(C)cc1)N1CCOCC1` showed an Activity with Pyricularia oryzae [4] of 30%.

As for `CCCCCC/C(=N/S(=O)(=O)c1ccc(Cl)cc1)N(CC)CC`, in the assay on Pyricularia oryzae [4], the Activity was determined as 30%.

With `CCCCCC/C(=N/S(=O)(=O)c1ccccc1Cl)N(CC)CC`, the Activity with Pyricularia oryzae [4] was 0%.

As to `CCCCCC/C(=N/S(=O)(=O)c1ccccc1)N(CC)CC`, the Activity in the assay on Pyricularia oryzae [4] stood at 30%.

As to `CC(C)OP(=O)(OC(C)C)SCc1ccccc1` [IPROBENFOS], the Activity worked out at 0% in the assay with Pyricularia oryzae [1], 30% in the assay on Pyricularia oryzae [2], 50% in the assay on Pyricularia oryzae [3] and 70% with Pyricularia oryzae [4].

For the origin of these results see ChEMBL document CHEMBL3044689, “Synthesis and Rice-Blast Control Activity of Sulfonylamidines” (1992).
